Experimental data as given in article PMC13411385, “Methyl on the Bridge: 2‐Methyl Propellane as Precursor for 1,3‐Substituted 2‐Methylated Bicyclo[1.1.1]Pentanes” (Chemistry (Weinheim an Der Bergstrasse, Germany), 2025).

Tests used:
[1] = set-up: method as in PMID 31894985; details: between 2,2‐difluorobutanol and 2,2‐difluoropentanol; cited from earlier work
[2] = octanol‐water partition coefficient (logP) by 19F NMR‐based protocol; assay type: physicochemical; details: for logP: measured octanol‐water partition coefficient, 19F NMR‐based protocol; for increase in lipophilicity on addition of a methyl group: methylated compound vs its nonmethylated analogue (46a vs 46b; 47a vs 47b)
Excerpt: The effect of the added bridge‐methyl group on physicochemical properties was investigated.
Figure 2 Comparison of measured octanol‐water partition coefficients between phenyl, tolyl, BCP, and 2‐MeBCP.

| Compound | ΔlogP [1] [logP units] | logP [2] | increase in lipophilicity on addition of a methyl group [2] [logP units] |
| --- | --- | --- | --- |
| CCCC(F)(F)CO [2,2‐difluoropentanol] | 0.58 | – | – |
| CC1C2CC1(C(F)(F)CO)C2 (stereo not shown) [46a, 2,2‐difluoro‐2‐(2‐methylbicyclo[1.1.1]pentan‐1‐yl)ethan‐1‐ol] | – | 2.11 | 0.54 |
| OCC(F)(F)C12CC(C1)C2 [46b, 2‐(bicyclo[1.1.1]pentan‐1‐yl)‐2,2‐difluoroethan‐1‐ol] | – | 1.57 | – |
| Cc1ccccc1C(F)(F)CO [47a, 2,2‐difluoro‐2‐(o‐tolyl)ethan‐1‐ol] | – | 2.03 | 0.46 |
| OCC(F)(F)c1ccccc1 [47b, 2,2‐difluoro‐2‐phenylethan‐1‐ol] | – | 1.57 | – |
